Assay results as given in ChEMBL document CHEMBL1275576, “In vitro activity of tomopenem (CS-023/RO4908463) against anaerobic bacteria” (Antimicrob Agents Chemother, 2009).

Experiments:
[1] = test system: Lactobacillus brevis; experiment: Antimicrobial activity against Lactobacillus brevis subsp. brevis JCM 1059 by agar dilution method in presence of 5% laked sheep blood; type: functional; settings: Levilactobacillus brevis
[2] = Antimicrobial activity against Veillonella dispar ATCC 17748 by agar dilution method in presence of 5% laked sheep blood; type: functional
[3] = test system: Bacteroides fragilis; experiment: Antimicrobial activity against Bacteroides fragilis ATCC 25285 by agar dilution method in presence of 5% laked sheep blood; type: functional; settings: NCTC 9343
[4] = test system: Prevotella melaninogenica; experiment: Antimicrobial activity against Prevotella melaninogenica JCM 6325 by agar dilution method in presence of 5% laked sheep blood; type: functional; settings: ATCC 25845
[5] = test system: Fusobacterium varium; experiment: Antimicrobial activity against Fusobacterium varium by agar dilution method in presence of 5% laked sheep blood; type: functional
[6] = test system: Lactiplantibacillus plantarum; experiment: Antimicrobial activity against Lactobacillus plantarum JCM 1149 by agar dilution method in presence of 5% laked sheep blood; type: functional
[7] = test system: Fusobacterium nucleatum; experiment: Antimicrobial activity against Fusobacterium nucleatum by agar dilution method in presence of 5% laked sheep blood; type: functional
[8] = test system: Gemella morbillorum; experiment: Antimicrobial activity against Gemella morbillorum ATCC 27824 by agar dilution method in presence of 5% laked sheep blood; type: functional
[9] = test system: Bacteroides thetaiotaomicron; experiment: Antimicrobial activity against Bacteroides thetaiotaomicron by agar dilution method in presence of 5% laked sheep blood; type: functional
[10] = test system: Fusobacterium necrophorum; experiment: Antimicrobial activity against Fusobacterium necrophorum by agar dilution method in presence of 5% laked sheep blood; type: functional
[11] = test system: Prevotella melaninogenica; experiment: Antimicrobial activity against Prevotella melaninogenica by agar dilution method in presence of 5% laked sheep blood; type: functional
[12] = test system: Parabacteroides distasonis; experiment: Antimicrobial activity against Parabacteroides distasonis by agar dilution method in presence of 5% laked sheep blood; type: functional
[13] = Antimicrobial activity against Desulfovibrio piger DSM 749 by agar dilution method in presence of 5% laked sheep blood; type: functional, Desulfovibrio piger ATCC 29098
[14] = test system: Campylobacter ureolyticus; experiment: Antimicrobial activity against Bacteroides ureolyticus NCTC 10941 by agar dilution method in presence of 5% laked sheep blood; type: functional
[15] = test system: Bacteroides heparinolyticus; experiment: Antimicrobial activity against Prevotella heparinolytica ATCC 35895 by agar dilution method in presence of 5% laked sheep blood; type: functional
[16] = test system: Peptoniphilus asaccharolyticus; experiment: Antimicrobial activity against Peptoniphilus asaccharolyticus WAL 3218 by agar dilution method in presence of 5% laked sheep blood; type: functional
[17] = Antimicrobial activity against Parabacteroides distasonis ATCC 8503 by agar dilution method in presence of 5% laked sheep blood; type: functional
[18] = test system: Eubacterium limosum; experiment: Antimicrobial activity against Eubacterium limosum by agar dilution method in presence of 5% laked sheep blood; type: functional
[19] = test system: Thomasclavelia ramosa; experiment: Antimicrobial activity against Clostridium ramosum ATCC 25582 by agar dilution method in presence of 5% laked sheep blood; type: functional
[20] = test system: Porphyromonas gingivalis; experiment: Antimicrobial activity against Porphyromonas gingivalis ATCC 33277 by agar dilution method in presence of 5% laked sheep blood; type: functional
[21] = test system: Parvimonas micra; experiment: Antimicrobial activity against Parvimonas micra by agar dilution method in presence of 5% laked sheep blood; type: functional
[22] = test system: Peptostreptococcus anaerobius; experiment: Antimicrobial activity against Peptostreptococcus anaerobius ATCC 27337 by agar dilution method in presence of 5% laked sheep blood; type: functional
[23] = test system: Porphyromonas asaccharolytica; experiment: Antimicrobial activity against Porphyromonas asaccharolyticus by agar dilution method in presence of 5% laked sheep blood; type: functional
[24] = test system: Desulfovibrio desulfuricans; experiment: Antimicrobial activity against Desulfovibrio desulfuricans by agar dilution method in presence of 5% laked sheep blood; type: functional
[25] = test system: Enterocloster clostridioformis; experiment: Antimicrobial activity against Clostridium clostridioforme NCTC 11224 by agar dilution method in presence of 5% laked sheep blood; type: functional
[26] = test system: Hoylesella oralis; experiment: Antimicrobial activity against Prevotella oralis ATCC 33269 by agar dilution method in presence of 5% laked sheep blood; type: functional
[27] = test system: Peptostreptococcus anaerobius; experiment: Antimicrobial activity against Peptostreptococcus anaerobius by agar dilution method in presence of 5% laked sheep blood; type: functional
[28] = test system: Fusobacterium sp.; experiment: Antimicrobial activity against Fusobacterium sp. by agar dilution method in presence of 5% laked sheep blood; type: functional
[29] = test system: Peptoniphilus asaccharolyticus; experiment: Antimicrobial activity against Peptoniphilus asaccharolyticus by agar dilution method in presence of 5% laked sheep blood; type: functional
[30] = test system: Bacteroides fragilis; experiment: Antimicrobial activity against Bacteroides fragilis GAI 7955 by agar dilution method in presence of 5% laked sheep blood; type: functional
[31] = test system: Bacteroides uniformis; experiment: Antimicrobial activity against Bacteroides uniformis by agar dilution method in presence of 5% laked sheep blood; type: functional
[32] = test system: Schaalia odontolytica; experiment: Antimicrobial activity against Actinomyces odontolyticus GAI 91002 by agar dilution method in presence of 5% laked sheep blood; type: functional
[33] = test system: Bacteroides ovatus; experiment: Antimicrobial activity against Bacteroides ovatus ATCC 8483 by agar dilution method in presence of 5% laked sheep blood; type: functional
[34] = test system: Clostridium perfringens; experiment: Antimicrobial activity against Clostridium perfringens ATCC 13124 by agar dilution method in presence of 5% laked sheep blood; type: functional
[35] = test system: Phocaeicola vulgatus; experiment: Antimicrobial activity against Bacteroides vulgatus by agar dilution method in presence of 5% laked sheep blood; type: functional
[36] = test system: Odoribacter splanchnicus; experiment: Antimicrobial activity against Odoribacter splanchnicus by agar dilution method in presence of 5% laked sheep blood; type: functional
[37] = test system: Bacteroides stercoris; experiment: Antimicrobial activity against Bacteroides stercoris by agar dilution method in presence of 5% laked sheep blood; type: functional
[38] = test system: Bacteroides caccae; experiment: Antimicrobial activity against Bacteroides caccae by agar dilution method in presence of 5% laked sheep blood; type: functional
[39] = test system: Finegoldia magna; experiment: Antimicrobial activity against Finegoldia magna by agar dilution method in presence of 5% laked sheep blood; type: functional
[40] = test system: Fusobacterium nucleatum; experiment: Antimicrobial activity against Fusobacterium nucleatum ATCC 25586 by agar dilution method in presence of 5% laked sheep blood; type: functional
[41] = test system: Fusobacterium varium; experiment: Antimicrobial activity against Fusobacterium varium ATCC 8501 by agar dilution method in presence of 5% laked sheep blood; type: functional
[42] = test system: Streptococcus intermedius; experiment: Antimicrobial activity against Streptococcus intermedius ATCC 27335 by agar dilution method in presence of 5% laked sheep blood; type: functional
[43] = test system: Porphyromonas gingivalis; experiment: Antimicrobial activity against Porphyromonas gingivalis by agar dilution method in presence of 5% laked sheep blood; type: functional
[44] = test system: Prevotella sp.; experiment: Antimicrobial activity against Prevotella sp. by agar dilution method in presence of 5% laked sheep blood; type: functional
[45] = test system: Lactobacillus acidophilus; experiment: Antimicrobial activity against Lactobacillus acidophilus JCM 1132 by agar dilution method in presence of 5% laked sheep blood; type: functional

CC(=N)N1CC[C@H](SC2=C(C(=O)O)N3C(=O)[C@H]([C@@H](C)O)[C@H]3C2)C1
MIC [1]: 0.03 µg/mL
MIC [2]: 0.06 µg/mL
MIC [3]: 0.25 µg/mL
MIC [4]: 0.06 µg/mL
MIC50 [5]: 0.125 µg/mL
MIC90 [5]: 2 µg/mL
MIC [6]: 0.03 µg/mL
MIC50 [7]: 0.125 µg/mL
MIC90 [7]: 2 µg/mL
MIC [8]: ≤ 0.015 µg/mL
MIC50 [9]: 0.5 µg/mL
MIC90 [9]: 2 µg/mL
MIC50 [10]: 0.125 µg/mL
MIC90 [10]: 2 µg/mL
MIC50 [11]: 0.125 µg/mL
MIC90 [11]: 0.25 µg/mL
MIC50 [12]: 1 µg/mL
MIC90 [12]: 4 µg/mL
MIC [13]: 0.125 µg/mL
MIC [14]: 0.25 µg/mL
MIC [15]: 0.125 µg/mL
MIC [16]: 0.25 µg/mL
MIC [17]: 1 µg/mL
MIC50 [18]: 1 µg/mL
MIC90 [18]: 2 µg/mL
MIC [19]: 0.25 µg/mL
MIC [20]: 0.03 µg/mL
MIC50 [21]: 0.125 µg/mL
MIC90 [21]: 0.125 µg/mL
MIC [22]: 0.125 µg/mL
MIC50 [23]: 0.06 µg/mL
MIC90 [23]: 0.06 µg/mL
MIC50 [24]: 0.5 µg/mL
MIC90 [24]: 1 µg/mL
MIC [25]: 0.25 µg/mL
MIC [26]: 0.06 µg/mL
MIC50 [27]: 0.125 µg/mL
MIC90 [27]: 1 µg/mL
MIC50 [28]: 0.125 µg/mL
MIC90 [28]: 2 µg/mL
MIC50 [29]: 0.03 µg/mL
MIC90 [29]: 0.06 µg/mL
MIC [30]: 4 µg/mL
MIC50 [31]: 1 µg/mL
MIC90 [31]: 4 µg/mL
MIC [32]: 0.5 µg/mL
MIC [33]: 0.5 µg/mL
MIC [34]: 0.03 µg/mL
MIC50 [35]: 1 µg/mL
MIC90 [35]: 4 µg/mL
MIC50 [36]: 1 µg/mL
MIC90 [36]: 4 µg/mL
MIC50 [37]: 1 µg/mL
MIC90 [37]: 4 µg/mL
MIC50 [38]: 1 µg/mL
MIC90 [38]: 4 µg/mL
MIC50 [39]: 0.25 µg/mL
MIC90 [39]: 0.5 µg/mL
MIC [40]: 1 µg/mL
MIC [41]: 4 µg/mL
MIC [42]: 0.25 µg/mL
MIC50 [43]: 0.06 µg/mL
MIC90 [43]: 0.06 µg/mL
MIC50 [44]: 0.125 µg/mL
MIC90 [44]: 0.25 µg/mL
MIC [45]: 0.25 µg/mL
